For the test, the target named is T1, RanGTP (Homo sapiens, UniProt P62826, Q69L).
T1 construct: made in house; host or cells: SG13 cells (E. coli)
As to the kind of experiment: fluorescent thermal shift assay (Sypro Orange), RanGTP (RanQ69L). In kind it is binding. The following applies: 2 μM RanQ69L, 50 μM importazole. How it is done: Experiments were performed using Applied Biosystems StepOnePlus™ Real-Time polymerase chain reaction (RT-PCR) System. Protein stocks were diluted in PBS and added 70% v/v to a Microamp® Fast 96-well Reaction Plate and maintained on ice. Compounds (importazole and control compound 3016) were then added at 30% v/v in 3% DMSO. Freshly prepared 100× water based-dilution of Sypro® Orange Protein Gel Stain was then added at 1% v/v to reach a final reaction volume of 20 μl. Samples were mixed by gentle pipetting. After sealing the plates with Microamp™ Optical Adhesive Film, the plate was subjected to a heating cycle composed of a 10 sec prewarming step at 25° C. and a gradient between 25° C. and 95° C. with a 0.3° C. ramp. Data was analyzed using the StepOnePlus™ Software v2.1.

The structures appear in SMILES notation.

As to `CC(Nc1nc(N2CCCC2)nc2ccccc12)c1ccccc1` (stereo not shown) [importazole, (1-phenyl-ethyl)-(2-pyrrolidin-1-yl-quinazolin-4-yl)-amine], the “effect on melting curve of RanGTP” value is “did not significantly affect the melting curves”.

The record behind these values is patent US20130225611A1, “Compositions and Methods for Reducing Cancer Cell Proliferation and Modulating Importin-Beta Function” (THE REGENTS OF THE UNIVERSITY OF CALIFORNIA, priority 2011, published 2013).
